In publication PMC12661293 (RSC Advances, 2025):

How the values were obtained:
[1] = molecular target: T1, α-amylase (Sus scrofa, UniProt P00690); experiment: In vitro α-amylase inhibitory assay; type: biochemical, porcine; settings: for inhibition at 10 µM: read-out: %Inhibition at 10 µM; for inhibition at 40 µM: read-out: %Inhibition at 40 µM; for inhibition at 80 µM: read-out: %Inhibition at 80 µM; for inhibition at 140 µM: read-out: %Inhibition at 140 µM; for inhibition at 260 µM: read-out: %Inhibition at 260 µM; for inhibition at 400 µM: read-out: %Inhibition at 400 µM; for inhibition at 500 µM: read-out: %Inhibition at 500 µM
T1 sequence (P00690 16-511): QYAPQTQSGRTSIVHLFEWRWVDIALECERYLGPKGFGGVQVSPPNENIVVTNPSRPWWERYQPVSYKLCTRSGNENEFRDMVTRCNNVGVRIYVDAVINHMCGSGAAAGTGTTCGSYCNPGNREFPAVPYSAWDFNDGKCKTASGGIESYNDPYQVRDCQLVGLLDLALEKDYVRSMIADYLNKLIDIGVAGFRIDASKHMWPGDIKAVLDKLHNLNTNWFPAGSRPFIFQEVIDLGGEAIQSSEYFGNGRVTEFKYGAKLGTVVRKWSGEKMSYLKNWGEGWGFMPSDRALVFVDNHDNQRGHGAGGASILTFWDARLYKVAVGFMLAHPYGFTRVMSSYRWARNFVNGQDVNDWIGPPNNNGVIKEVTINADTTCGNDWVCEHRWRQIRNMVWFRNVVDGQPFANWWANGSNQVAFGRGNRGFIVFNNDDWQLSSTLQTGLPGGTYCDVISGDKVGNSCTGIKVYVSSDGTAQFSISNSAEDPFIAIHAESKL

[2] = molecular target: α-glucosidase (Saccharomyces cerevisiae, UniProt P53341); experiment: In vitro α-glucosidase inhibitory assay; type: biochemical; settings: for inhibition at 10 µM: read-out: %Inhibition at 10 µM; for inhibition at 40 µM: read-out: %Inhibition at 40 µM; for inhibition at 100 µM: read-out: %Inhibition at 100 µM; for inhibition at 140 µM: read-out: %Inhibition at 140 µM; for inhibition at 350 µM: read-out: %Inhibition at 350 µM; for inhibition at 400 µM: read-out: %Inhibition at 400 µM; for inhibition at 500 µM: read-out: %Inhibition at 500 µM
[3] = tested on: ct-DNA; experiment: Spectrophotometric; type: binding, calf; settings: ligand fixed 50 µM, ct-DNA 0–80 µM, phosphate buffer pH 7.2
[4] = tested on: ct-DNA; experiment: Cyclic voltammetry of ligands with ct-DNA; type: binding, calf; settings: increasing ct-DNA 10–80 µM, phosphate buffer pH 7.2
[5] = tested on: EB-ct-DNA; experiment: Ethidium bromide displacement fluorescence quenching with ct-DNA; type: binding, calf

Chain of α-glucosidase (P53341 whole entry): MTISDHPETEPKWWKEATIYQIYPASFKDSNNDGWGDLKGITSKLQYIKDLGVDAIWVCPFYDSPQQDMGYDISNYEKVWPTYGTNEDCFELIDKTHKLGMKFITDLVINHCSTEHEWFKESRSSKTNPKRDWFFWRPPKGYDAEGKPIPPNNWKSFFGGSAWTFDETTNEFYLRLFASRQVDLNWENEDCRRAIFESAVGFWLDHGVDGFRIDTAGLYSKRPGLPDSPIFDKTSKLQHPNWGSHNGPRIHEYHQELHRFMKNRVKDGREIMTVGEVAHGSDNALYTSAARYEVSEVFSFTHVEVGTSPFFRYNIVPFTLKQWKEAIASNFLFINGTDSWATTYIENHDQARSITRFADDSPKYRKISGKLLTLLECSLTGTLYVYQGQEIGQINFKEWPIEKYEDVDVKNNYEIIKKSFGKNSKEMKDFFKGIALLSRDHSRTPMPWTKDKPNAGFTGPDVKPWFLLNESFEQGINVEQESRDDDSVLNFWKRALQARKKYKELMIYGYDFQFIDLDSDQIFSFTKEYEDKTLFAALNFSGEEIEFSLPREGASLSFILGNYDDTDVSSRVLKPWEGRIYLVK

inhibition at 10 µM [1] [%]	inhibition at 40 µM [1] [%]	inhibition at 80 µM [1] [%]	inhibition at 140 µM [1] [%]	inhibition at 260 µM [1] [%]	inhibition at 400 µM [1] [%]	inhibition at 500 µM [1] [%]	inhibition at 10 µM [2] [%]	inhibition at 40 µM [2] [%]	inhibition at 100 µM [2] [%]	inhibition at 140 µM [2] [%]	inhibition at 350 µM [2] [%]	inhibition at 400 µM [2] [%]	inhibition at 500 µM [2] [%]	IC50 [2] [µM]	SMILES	other results
1.2	1.6	6	26.4	39.8	65.1	74.8	2.9	9.44	13	16.2	81.2	97.2	97.7	–	C[C@H]1O[C@H](O[C@H]2[C@H](O)[C@@H](O)[C@@H](O[C@H]3[C@H](O)[C@@H](O)C(O)O[C@@H]3CO)O[C@@H]2CO)[C@H](O)[C@@H](O)[C@@H]1N[C@H]1C=C(CO)[C@@H](O)[C@H](O)[C@H]1O (stereo partly shown) [Acarbose, acarbose, reference compound]	–
–	–	–	–	–	–	–	–	–	–	–	–	–	–	394	Cc1cccc(C=CC(=O)c2cnn(-c3ccccc3)c2C)c1 [L^I, 1-(5-methyl-1-phenyl-1H-pyrazol-4-yl)-3-(m-tolyl)prop-2-en-1-one]	–
–	–	–	–	–	–	–	–	–	–	–	–	–	–	215	Cc1c(C(=O)C=Cc2ccc(Cl)cc2Cl)cnn1-c1ccccc1 [L^II, 3-(2,4-dichlorophenyl)-1-(5-methyl-1-phenyl-1H-pyrazol-4-yl)prop-2-en-1-one]	–
9.1	9.5	11	12	16.8	26	28.9	9.36	10.8	21.4	32.4	67	71.5	74.1	281	Cc1c(C(=O)C=Cc2cccc([N+](=O)[O-])c2)cnn1-c1ccccc1 [L^III, 1-(5-methyl-1-phenyl-1H-pyrazol-4-yl)-3-(3-nitrophenyl) prop-2-en-1-one]	Binding constant (kb) [3]: 15590 M⁻¹; Interaction mode [3]: Intercalative; Binding mode from cyclic voltammetry [4]: intercalation; Quenching constant (Ksv) ([5]; Stern–Volmer): 3030 M⁻¹; Binding constant (Kb) ([5]; modified Stern–Volmer): 4315.8 M⁻¹; IC50 ([1]; IC50 α-amylase): 984 µM
